# Test results taken from ChEMBL document CHEMBL1130563, “The synthesis of (R)-1-(2-oxocyclopentyliden)-2-alkanols and the (S)-forms, and their bio-antimutagenic activity against UV-induced Escherichia coli WP2 B/r Trp” (1997).
# Active and inactive are the calls of the source. The rule behind the calls is not given here.
# Tests used:
# Escherichia coli [1] = assay: Compound was tested for half inhibition-dose of mutation frequency of UV-induced Escherichia coli WP2 B/r Trp; format: functional
# Escherichia coli [2] = assay: Bio-antimutagenic activity against UV-induced Escherichia coli WP2 B/r Trp; Not active; format: functional, organism-based
# Escherichia coli [3] = assay: Microbicidal activity against UV-induced Escherichia coli WP2 B/r Trp at a dose of 150 ug/mL; Not active; format: functional, organism-based
# Escherichia coli [4] = assay: Microbicidal activity against UV-induced Escherichia coli WP2 B/r Trp at a dose of 120 ug/mL; Not active; format: functional, organism-based
# Escherichia coli [5] = assay: Bio-antimutagenic activity against UV-induced Escherichia coli WP2 B/r Trp; format: functional
SMILES,AD50 (Escherichia coli [1]) [µg/mL],AD50 (Escherichia coli [2]),Activity (Escherichia coli [3]),Activity (Escherichia coli [4]),AD50 (Escherichia coli [5]) [µg/mL]
CCCCCCC(O)/C=C1/CCCC1=O (stereo not given),79,,,,
CCCCCCCC[C@@H](O)/C=C1/CCCC1=O,,inactive,inactive,,
CCCCCC[C@H](O)/C=C1/CCCC1=O,,,,inactive,50
CCCCCCCCC(O)/C=C1/CCCC1=O (stereo not given),6.7,,,,
CCCCCC[C@@H](O)/C=C1/CCCC1=O,,inactive,inactive,,
CCCCCCCC[C@H](O)/C=C1/CCCC1=O,,,,inactive,50
